Measured values taken from patent US20040266794A1, “Pramipexole for the reduction of excessive food intake for children” (Boehringer Ingelheim International GmbH, priority 2003, published 2004).
Where two headings read alike, the source gives them in different places.

How the values were obtained:
mice (Strain: C57BL/6) [1] = system: mice (Strain: C57BL/6)
Experimental: (§1) 10 mice (Strain: C57BL/6) were deprived of food for 24 hours while being given free access to drinking water.

mice (Strain: C57BL/6) [2] = settings: C57BL/6 mice fasted 24 hours; single application given on successive days, 2.5 mg/kg of body weight s.c.; food consumption over 4 days; vs physiological saline; FIG. 1
Experimental: Test method by single administration:
as §1
20 minutes before the end of the fasting period pramipexol was administered (2.5 mg/kg of body weight s.c.). The control group, also 10 mice, were given physiological saline solution, the solvent used for pramipexol. Then the animals were offered food and the food consumption over 4 days in 30 minute cycles was measured.

`CCCN[C@H]1CCc2nc(N)sc2C1` [Pramipexol] was tested, and the food intake (mice (Strain: C57BL/6) [1]; C57BL/6 mice fasted 24 hours, continuous administration by alzet Mini-osmotic pump s.c., 2.5 mg of pramipexol/24 hours, measured for 4 days, vs physiological saline, FIG. 1) was “permanent, statistically highly significant inhibition in food intake”, the change in weight (mice (Strain: C57BL/6) [1]; C57BL/6 mice, continuous (long term) administration by osmotic pump s.c., measured daily over 22 days, administration ending after 14 days, FIG. 2) was “permanent weight reduction was observed which was statistically highly significant even after the pramipexol treatment had ended” and the food intake (mice (Strain: C57BL/6) [2]) was “did not significantly reduce food intake”.
